In patent publication US8623861B2, “Method of treating demyelination diseases” (priority 2006, dated 2014):

Experiments:
PC 12 cell = settings: serum withdrawal or addition of hydrogen peroxide, β-amyloid peptide or MPP+; cited from earlier work
C57BL/6 mice [1] = tested on: C57BL/6 mice
Method: (§1) To test whether quetiapine can protect mouse brain from cuprizone-induced demyelination, 8-week old mice were fed a diet of milled LabDiet® rodent chow (PMI nutrition international LLC, Brentwood, Mo., USA) containing 0.2% cuprizone for 5 weeks (w/w) (Sigma-Aldrich, St. Louis, Mo., USA) as previously described (Morell et al., 1998). […] The study included the following 4 groups (6-8 animals/group): group 1: control, fed with regular chow (con); group 2: pre-administrated with quetiapine (10 mg/kg/day in drinking water) for 1 week, then followed by 5 weeks of quetiapine administration with normal diet (que); group 3: fed for 5 weeks on a cuprizone-containing diet (cup) with regular tap water for drinking; group 4: pre-administrated with quetiapine (10 mg/kg/day in drinking water) for 1 week, then followed by 5 weeks of quetiapine treatment with cuprizone administration (cup+que).
(§2) To study the effect of quetiapine on the remyelination process, an additional two groups (6-8 animals/group) of mice were treated with 0.2% cuprizone in milled chow for 6 weeks, and then returned to a cuprizone-free diet (Matsushima and Morell, 2001). Upon resumption of the cuprizone-free diet, mice were fed with either vehicle (water) or quetiapine (10 mg/kg/day in water, que) for 2 weeks.
Immediately after the locomotor activity test, spatial working memory was assessed by recording spontaneous alternation behavior in a Y-maze comprised of three 30-cm compartments marked as A, B, and C arms. Spontaneous alternation behavior is based on the natural tendency of rodents to explore a novel environment. In a Y-maze, mice tend to explore the maze by systematically entering each arm. For efficient alternation, mice are required to know which arms have already been visited. Therefore, alternation behavior can be regarded as a measure involving spatial working memory. […] Each mouse was placed at the end of one arm and allowed to move freely through the maze during an 8-min period. The total number and series of arm entries were recorded visually. The number of overlapping entrance sequences (e.g., ABC, BCA) was defined as the number of alternations. The effect was calculated as the percentage of alternation according to the following formula: Percent alternation=(number of alternations)/(total number of arm entries-2)×100 (Wall et al., 2002). Total entries were scored as an index of ambulatory activity in the Y-maze, and mice showing scores below six entries would be excluded.

C57BL/6 mice [2] = settings: all groups (con, que, cup, cup+que); data not shown
Method: as §1, §2

C57BL/6 mice [3] = tested on: C57BL/6 mice; remark: listed apart in the source
Method: as §1, §2
At the end of their treatment period, mice were anaesthetized with pentobarbital sodium at 50 mg/kg and perfused intracardially with 0.01 M PBS followed by 4% paraformaldehyde in PBS, and the brains were post-fixated overnight in 4% paraformaldehyde. Brain tissues were then rinsed 3 times with 0.01 M PBS and cryoprotected in 30% sucrose at 4° C. for one day and frozen at −80° C. for immunostaining. Serial coronal sections were dissected between levels 1 to −1 mm bregma, as defined in the mouse brain atlas of Franklin and Paxinos (Franklin and Paxinos, 1997). Demyelination was evaluated in frozen sections (30 μm) of the corpus callosum using Luxol fast blue with periodic acid-Schiff reaction. Floating frozen sections (30 μm) were incubated with 0.3% of H2O2 in 0.01 M PBS for 30 min at room temperature (RT) for quenching endogenous peroxidase activity, then blocked with 10% goat serum/PBS or 10% rabbit serum (for MBP staining) for 1 hour at RT, and then incubated overnight with the primary antibody(s) diluted in the blocking solution. After rinsing, the sections were incubated with the appropriate biotin-conjugated secondary antibody (1:1000; Vector Laboratories, Burlingame, Calif.) for 1 hour at RT. Sections were then developed with the avidin biotin complex kit (Vector Laboratories, Burlingame, Calif.) and the antibodies were visualized with DAB chromogen (Sigma-Aldrich, St. Louis, Mo.).
A goat polyclonal antibody directed against MBP (1:250; Santa Cruz Biotechnology, CA) was used to detect myelin. A rabbit anti-pi isoform of glutathione S-transferase (GST-pi, 1:500; Stressgen, Victoria, BC, Canada) was used as a marker for mature oligodendrocytes (Mason et al., 2004); Ness et al., 2005). The rabbit polyclonal NG2 antibody (1:200; Chemicon, Temecula, Calif.) was used as a marker for oligodendrocyte progenitors (Nishiyama et al., 1996).
For GST-pi and NG2 quantification, three digital pictures from the coronal section from each animal (including the middle line and the two edges of the corpus callosum in each section) were examined. Cell counts are expressed as the mean number of positive cells counted in three coronal sections from two different areas, 500 μm apart, between 1 to −1 mm bregma, following the mouse brain atlas of Franklin and Paxinos (Franklin and Paxinos, 1997). Results are expressed as the average of at least 6 mice per group. For MBP staining analysis, three digital pictures from the coronal section (including cerebral cortex) of each animal were examined, at least 6 animals of each group.

[4] = tested on: neural progenitor cell cultures; settings: in vitro
BDNF = settings: Xu et al., 2002; Luo et al., 2004; cited from earlier work
rats = settings: He et al., 2005; cited from earlier work
[5] = He et al., 2006; Martin et al., 2005; cited from earlier work
[6] = 2 weeks of recovery from cuprizone, quetiapine 10 mg/kg/day in water vs. vehicle (water)
[7] = 0.2% cuprizone 5 weeks with quetiapine co-administration vs. cuprizone alone
[8] = quetiapine alone with normal diet vs. control

Compound: Cc1nc2n(c(=O)c1CCN1CCC(c3noc4cc(F)ccc34)CC1)CCCC2 [risperidone]
- PC 12 cell death (PC 12 cell): reduce the PC 12 cell death

Compound: OCCOCCN1CCN(C2=Nc3ccccc3Sc3ccccc32)CC1 [quetiapine]
- total number of arm entries in Y-maze (C57BL/6 mice [1]; 0.2% cuprizone 5 weeks, co-administration of quetiapine 10 mg/kg/day p.o.): decreased the rise of the total number of arm entries induced by cuprizone
- impairment of spontaneous alternation behavior in the Y-maze (C57BL/6 mice [1]; 0.2% cuprizone 5 weeks, co-administration of quetiapine 10 mg/kg/day p.o., ++p<0.01 vs. cuprizone): significantly attenuated the impairment of spontaneous alternation behavior
- memory impairment in Y-maze during remyelination (C57BL/6 mice [1]; [6]): did not appear to improve memory impairment
- total arm entries in the Y-maze during remyelination (C57BL/6 mice [1]; [6]): did not appear to improve memory impairment or alter the total arm entries
- locomotor activity (C57BL/6 mice [2]): no significant difference among groups
- loss of GST-pi+ mature oligodendrocytes in the corpus callosum (C57BL/6 mice [3]; 0.2% cuprizone 5 weeks with quetiapine co-administration): did not reverse the loss of mature oligodendrocytes
- demyelination in LFB-PAS staining (C57BL/6 mice [3]; [7]): showed the same trend as MBP staining
- number of NG2+ cells within the demyelinated areas (C57BL/6 mice [3]; [7]): dramatically decreased the number of NG2+ cells
- reduction of demyelination in MBP staining (C57BL/6 mice [3]; [7]): 35%
- remyelination in demyelinated lesions (MBP and LFB-PAS) (C57BL/6 mice [3]; 2-week recovery from cuprizone, quetiapine vs. vehicle (water)): no difference between the vehicle (water) and quetiapine treatment on remyelination
- NG2+ cells after recovery (C57BL/6 mice [3]; 2 weeks recovery from cuprizone, quetiapine vs. water): had little effect on this change
- GST-pi+ mature oligodendrocytes during remyelination (C57BL/6 mice [3]; 2 weeks recovery from demyelination, quetiapine vs. water, +p<0.05 vs. water): dramatically increased
- NG2+ cells, quetiapine alone (C57BL/6 mice [3]; quetiapine alone with normal diet): Few NG2+ cells were observed
- GST-pi+ cells, quetiapine alone (C57BL/6 mice [3]; [8]): had no difference
- myelination (MBP staining), quetiapine alone (C57BL/6 mice [3]; [8]): show no difference on myelination
- proliferation and differentiation of oligodendrocytes [4]: promoted the proliferation and differentiation of oligodendrocytes
- expression of BDNF in rat hippocampus after immobilization stress (BDNF): attenuate the immobilization stress-induced decrease in the expression of BDNF
- PC 12 cell death (PC 12 cell): reduce the PC 12 cell death
- short- and long-term behavioral consequences of chronic dl-amphetamine (rats): modulate the short- and long-term behavioral consequences
- memory deficits induced by phencyclidine and kainic acid [5]: could reverse memory deficits
